{
  "source": "patent US8715673B2",
  "about": "(priority 2011, dated 2014)",
  "conditions_in_all_cases": "in vivo",
  "key": {"[1]": {"tested_on": "S. aureus strain USA300 (LAC)"}, "[2]": {"tested_on": "S. aureus strain USA300 (LAC)", "remark": "listed apart in the source"}, "[3]": {"tested_on": "Staphylococcus aureus strain USA300 (LAC)", "design": "species or system S. aureus"}, "[4]": {"tested_on": "S. aureus strain USA300 (LAC)", "remark": "listed apart in the source"}, "[5]": {"tested_on": "S. aureus strain USA300 (LAC)", "remark": "listed apart in the source"}, "[6]": {"tested_on": "S. aureus strain USA300 (LAC)", "remark": "listed apart in the source"}, "[7]": {"tested_on": "S. aureus strain USA300 (LAC)", "remark": "listed apart in the source"}, "[8]": {"tested_on": "Staphylococcus aureus strain USA300 (LAC)", "design": "species or system S. aureus", "remark": "listed apart in the source"}},
  "note": "Several values for one entry are separate records, joined by “and”; a condition that tells them apart may be missing. Equal entries are not always repeated. Where two headings read alike, the source gives them in different places.",
  "data": [
    {"smiles": "CC(=O)NC[C@H]1CN(c2ccc(N3CCOCC3)c(F)c2)C(=O)O1", "note": "[linezolid]", "values": [
      {"measurement": "Cumulative survival (%) Day 1", "setting": "[1]", "value": 100, "unit": "%"},
      {"measurement": "Cumulative survival (%) Day 7", "setting": "[1]", "value": 70, "unit": "%"},
      {"measurement": "cumulative survival at day 7", "setting": "[1]", "value": 70, "unit": "%"},
      {"measurement": "survival rate at day 14 (study end)", "setting": "[1]", "value": 70, "unit": "%"},
      {"measurement": "Cumulative survival (%) day 0, 2 h", "setting": "[2]", "value": 100, "unit": "%"},
      {"measurement": "Cumulative survival (%) day 0, 4 h", "setting": "[2]", "value": 100, "unit": "%"},
      {"measurement": "Cumulative survival (%) day 0, 8 h", "setting": "[2]", "value": 100, "unit": "%"},
      {"measurement": "Cumulative survival (%) day 0, 12 h", "setting": "[2]", "value": 100, "unit": "%"},
      {"measurement": "Cumulative survival (%) day 1", "setting": "[2]", "value": "100% and 60%"},
      {"measurement": "Day 4 CFU/g tissue (log10), Mean CFU/g", "setting": "[3]", "value": "5.2 CFU/g tissue (log10)"},
      {"measurement": "Day 4 CFU/g tissue (log10), individual mice", "setting": "[3]", "value": "5.7 CFU/g tissue (log10) and 5.2 CFU/g tissue (log10) and 6.0 CFU/g tissue (log10) and 4.5 CFU/g tissue (log10) and 4.8 CFU/g tissue (log10) and 5.1 CFU/g tissue (log10) and 5.4 CFU/g tissue (log10) and 4.9 CFU/g tissue (log10)"},
      {"measurement": "Day 4 CFU/g tissue (log10), median", "setting": "[3]", "value": "5.1 CFU/g tissue (log10)"},
      {"measurement": "bacterial burden in the infected area, average", "setting": "[3]", "value": "about 5.2 log 10 CFU/g"},
      {"measurement": "CFU/g Kidney Tissue (log10), individual mouse", "setting": "[4]", "value": "0.00 and 5.95 and 3.77 and 3.21"},
      {"measurement": "CFU/g Kidney Tissue (log10), mean CFU/g", "setting": "[4]", "value": 3.23},
      {"measurement": "CFU/g Lung Tissue (log10), individual mouse", "setting": "[4]", "value": "3.13 and 7.64 and 4.36 and 3.55"},
      {"measurement": "CFU/g Lung Tissue (log10), mean CFU/g", "setting": "[4]", "value": 4.67},
      {"measurement": "Cumulative survival (%) Day 0", "setting": "[5]", "value": 100, "unit": "%"},
      {"measurement": "Cumulative survival (%) Day 1", "setting": "[5]", "value": 100, "unit": "%"},
      {"measurement": "Cumulative survival (%) Day 2", "setting": "[5]", "value": "60% and 100%"},
      {"measurement": "Cumulative survival day 1", "setting": "[5]", "value": 100, "unit": "%"},
      {"measurement": "Cumulative survival day 2", "setting": "[5]", "value": 60, "unit": "%"},
      {"measurement": "Cumulative survival day 3", "setting": "[5]", "value": 20, "unit": "%"},
      {"measurement": "Cumulative survival day 4", "setting": "[5]", "value": 20, "unit": "%"},
      {"measurement": "Cumulative survival day 5", "setting": "[5]", "value": 20, "unit": "%"},
      {"measurement": "Median survival time", "setting": "[5]", "value": "4 days and 2.5 days"},
      {"measurement": "survival rate", "setting": "[5]", "value": 90, "unit": "%"},
      {"measurement": "Cumulative survival (%) Day 1", "setting": "[6]", "value": 100, "unit": "%"},
      {"measurement": "Cumulative survival (%) Day 7", "setting": "[6]", "value": 70, "unit": "%"},
      {"measurement": "cumulative survival at day 7", "setting": "[6]", "value": 70, "unit": "%"},
      {"measurement": "survival rate at study end", "setting": "[6]", "value": 60, "unit": "%"},
      {"measurement": "Cumulative survival (%) Day 0", "setting": "[7]", "value": 100, "unit": "%"},
      {"measurement": "Cumulative survival (%) Day 1", "setting": "[7]", "value": 100, "unit": "%"},
      {"measurement": "Cumulative survival (%) Study end", "setting": "[7]", "value": 40, "unit": "%"},
      {"measurement": "Average area of abscess (mm^2) Day 0", "setting": "[8]", "value": 0.0, "unit": "mm^2"},
      {"measurement": "Average area of abscess (mm^2) Day 1", "setting": "[8]", "value": 0.0, "unit": "mm^2"},
      {"measurement": "Average area of abscess (mm^2) Day 2", "setting": "[8]", "value": 6.6, "unit": "mm^2"},
      {"measurement": "Average area of abscess (mm^2) Day 3", "setting": "[8]", "value": 4.9, "unit": "mm^2"},
      {"measurement": "Average area of abscess (mm^2) Day 4", "setting": "[8]", "value": 3.7, "unit": "mm^2"},
      {"measurement": "mean area of skin abscess, day 1", "setting": "[8]", "value": "about 0.0 mm^2"},
      {"measurement": "mean area of skin abscess, day 2", "setting": "[8]", "value": "~6.6", "unit": "mm^2"},
      {"measurement": "mean area of skin abscess, day 3", "setting": "[8]", "value": "~4.9", "unit": "mm^2"},
      {"measurement": "mean area of skin abscess, day 4", "setting": "[8]", "value": "~3.7", "unit": "mm^2"}
    ]}
  ]
}
